Where two headings read alike, the source gives them in different places.
What was measured:
Assay type in all cases: cell-based, Plasmodium falciparum
Details in all cases: Plasmodium falciparum
[1] = test system: P. falciparum Dd2 Cytb G131S; test: SYBR Green ABS proliferation assay, NCGC00374598 selected clone C11
Method: (§1) As resistance selection studies implicated the parasite cytochrome bc1 complex in mediating reduced parasite susceptibility to both NCGC00473217 and NCGC00374598, we leveraged these drug-selected parasites to test for altered drug response to a panel of antimalarial compounds.
(§2) The P. falciparum parasite Dd2 line was cultured in vitro using standard conditions. […] Tissue culture flasks and assay plates were incubated at 37 °C under a gas mixture of 5% CO2, 5% O2 and 90% N2. […] Significant differences were assessed using two-sided Student’s t-tests. All HTS assays were stopped and read at 72 h. Percent response values represent relative growth as judged by SYBR Green-I fluorescence intensity values normalized to controls.
(§3) Fresh uninfected RBCs (0.5% hematocrit) were added on day 7 and media was changed every other day. […] Resistant parasites were maintained under drug media at a volume of 50 mL until a high parasitemia (> 5%) was achieved. Aliquots of the bulk resistant cultures were frozen in cryovials before cloning by limiting dilution in 96-well plates (seeded at 0.25 or 0.5 parasites/well)[70]. After 3 weeks of cloning, we screened for positive wells by flow cytometry with SYBR Green-stained cells. […] Parasites were harvested by saponin lysis at the trophozoite stage and genomic DNA was extracted using the QIAamp DNA Blood Midi Kit (Qiagen, Germantown, MD)[71].

[2] = test system: P. falciparum Dd2 Cytb V259L; test: SYBR Green ABS proliferation assay, NCGC00473217 selected clone F06
Method: as §1, §2, §3

[3] = test system: P. falciparum Dd2 Cytb A122D; test: SYBR Green ABS proliferation assay, NCGC00473217 selected clone F12
Method: as §1, §2, §3

[4] = test system: P. falciparum Dd2 Cytb F123L; test: SYBR Green ABS proliferation assay, NCGC00473217 selected clone G08
Method: as §1, §2, §3

[5] = DD2, cytochrome b mutant line, second value triple, c6, […], read-out: log AC50, mean (converted)
[6] = DD2, cytochrome b mutant line, third value triple, c9, […], read-out: log AC50, mean (converted)
[7] = DD2, cytochrome b mutant line, fourth value triple, c12, […], read-out: log AC50, mean (converted)
[8] = DD2, cytochrome b mutant line, fifth value triple, c15, […], read-out: log AC50, mean (converted)
[9] = DD2, […], averaged from three independent replicates, top concentration 29 µM, read-out: Average AC50 (Log[M]), NCGC00374598 clone C11 (Cytb G131S) (converted)
[10] = DD2, […], averaged from three independent replicates, top concentration 29 µM, read-out: Average AC50 (Log[M]), NCGC00473217 clone F06 (Cytb V259L) (converted)
[11] = DD2, […], averaged from three independent replicates, top concentration 29 µM, read-out: Average AC50 (Log[M]), NCGC00473217 clone F12 (Cytb A122D) (converted)
[12] = DD2, […], averaged from three independent replicates, top concentration 29 µM, read-out: Average AC50 (Log[M]), NCGC00473217 clone G08 (Cytb F123L) (converted)

SMILES	AC50 [1, 5]	AC50 [2, 6]	AC50 [3, 7]	AC50 [4, 8]	AC50 [1, 9]	AC50 [2, 10]	AC50 [3, 11]	AC50 [4, 12]
COc1ccc(-c2nc(C3CC3)nc3c2CCN(C(=O)c2ccc(C(F)(F)F)cc2)CC3)cc1 [NCGC00374638-01]	1.19e-05 M	1.38e-05 M	1.28e-05 M	1.06e-05 M	–	–	–	–
COc1ccc(-c2nc(C3CC3)nc3c2CCN(S(=O)(=O)c2ccccc2)CC3)cc1 [NCGC00374642-01]	1.33e-05 M	1.61e-05 M	1.44e-05 M	1.61e-05 M	–	–	–	–
COc1ccc(-c2nc(C3CC3)nc3c2CCN(Cc2ccc(C#N)cc2)CC3)cc1 [NCGC00374656-01]	7.5e-06 M	1.14e-05 M	8.41e-06 M	8.09e-06 M	–	–	–	–
COc1cc(OC)c(OC)cc1CN1CCc2nc(N(C)C)[nH]c(=O)c2CC1 [NCGC00440589-01]	2.66e-06 M	2.76e-06 M	1.61e-06 M	2.03e-06 M	–	–	–	–
O=c1[nH]c(N2CCOCC2)nc2c1CCN(Cc1ccc(C(F)(F)F)cc1)CC2 [NCGC00440629-01]	6.43e-06 M	1.5e-05 M	9.08e-06 M	1.88e-06 M	–	–	–	–
O=c1[nH]c(N2CCOCC2)nc2c1CCN(Cc1ccc(Cl)c(F)c1)CC2 [NCGC00440655-01]	1.14e-05 M	1.38e-05 M	1.28e-05 M	4.55e-06 M	–	–	–	–
CCc1nc2c(c(-c3ccc(Cl)cc3)n1)CCN(Cc1ccc(NC(C)=O)cc1)CC2 [NCGC00476919-01]	1.28e-05 M	1.5e-05 M	1.14e-05 M	2.03e-06 M	–	–	–	–
COc1ccc(-c2nc(C(C)C)nc3c2CCN(C(=O)c2ccccc2Cl)CC3)cc1 [NCGC00479503-01]	2.28e-06 M	1.58e-05 M	1.28e-05 M	1.23e-05 M	–	–	–	–
COc1ccc(-c2nc(C(C)C)nc3c2CCN(C(=O)c2cccc(Cl)c2)CC3)cc1 [NCGC00479504-01]	1.55e-05 M	1.68e-05 M	1.61e-05 M	1.19e-05 M	–	–	–	–
COc1ccc(-c2nc(C(C)C)nc3c2CCN(C(=O)Cc2cccc(Cl)c2)CC3)cc1 [NCGC00479508-01]	1.33e-05 M	1.74e-05 M	1.44e-05 M	1.28e-05 M	–	–	–	–
COc1ccc(-c2nc(C(C)C)nc3c2CCN(C(=O)Nc2ccccc2)CC3)cc1 [NCGC00479509-01]	1.19e-05 M	1.61e-05 M	1.44e-05 M	1.23e-05 M	–	–	–	–
COc1ccc(-c2nc(C(C)C)nc3c2CCN(C(=O)Cc2ccc(F)cc2)CC3)cc1 [NCGC00479517-01]	1.5e-05 M	1.88e-05 M	1.68e-05 M	1.06e-05 M	–	–	–	–
COc1ccc(-c2nc(C(C)C)nc3c2CCN(S(=O)(=O)c2cccc(C(F)(F)F)c2)CC3)cc1 [NCGC00479522-01]	1.1e-05 M	1.28e-05 M	1.68e-05 M	1.14e-05 M	–	–	–	–
CCc1nc2c(c(-c3ccc(O)cc3)n1)CCN(Cc1cccn1C)CC2 [NCGC00480312-01]	1.88e-05 M	1.74e-05 M	1.44e-05 M	1.14e-05 M	–	–	–	–
COc1ccc(CN2CCc3nc(C(C)C)nc(-c4ccc(O)cc4)c3CC2)cc1 [NCGC00480318-01]	5.11e-06 M	9.08e-06 M	7.78e-06 M	9.08e-06 M	–	–	–	–
CC(C)c1nc2c(c(-c3ccc(O)cc3)n1)CCN(C(=O)c1cccc(Cl)c1)CC2 [NCGC00480331-01]	1.74e-05 M	1.81e-05 M	1.68e-05 M	1.19e-05 M	–	–	–	–
COc1ccc(CN2CCc3nc(C4CC4)nc(-c4ccc(O)cc4)c3CC2)cc1 [NCGC00480355-01]	1.06e-05 M	1.61e-05 M	1.19e-05 M	1.23e-05 M	–	–	–	–
Cc1ccccc1C(=O)N1CCc2nc(C3CC3)nc(-c3ccc(O)cc3)c2CC1 [NCGC00480365-01]	1.38e-05 M	1.28e-05 M	1.81e-05 M	1.38e-05 M	–	–	–	–
O=C(c1cccc(Cl)c1)N1CCc2nc(C3CC3)nc(-c3ccc(O)cc3)c2CC1 [NCGC00480367-01]	1.06e-05 M	2.66e-06 M	1.55e-05 M	1.28e-06 M	–	–	–	–
CCCN1C(CC(C)C)=N[S+](=O)([O-])c2cc(NC(C)=O)ccc21 [NCGC00521093-01]	–	–	–	–	2e-05 M	8.93e-06 M	1.04e-05 M	7.96e-06 M

SMILES	AC50 [1, 5]	AC50 [2, 6]	AC50 [3, 7]	AC50 [4, 8]	AC50 [1, 9]	AC50 [2, 10]	AC50 [3, 11]	AC50 [4, 12]
CCCN1C(CC(C)C)=N[S+](=O)([O-])c2cc(NC(=O)c3cccnn3)ccc21 [NCGC00521144-01]	–	–	–	–	2e-05 M	2.82e-06 M	2.67e-06 M	1.12e-05 M
CCCN1C(CC(C)C)=N[S+](=O)([O-])c2cc(NC(=O)c3cn(C)cn3)ccc21 [NCGC00521148-01]	–	–	–	–	2.67e-06 M	1.17e-05 M	1.12e-05 M	7.1e-06 M
CCCN1C(CC(C)C)=N[S+](=O)([O-])c2cc(NC(=O)c3ccc(Br)c(F)c3)ccc21 [NCGC00531761-01]	1.12e-06 M	3.36e-06 M	1e-06 M	7.96e-08 M	–	–	–	–
CCCN1C(CC(C)C)=N[S+](=O)([O-])c2cc(NC(=O)c3ccccc3OC)ccc21 [NCGC00531762-01]	1e-06 M	2e-06 M	1.12e-06 M	2.52e-06 M	–	–	–	–
CCCN1C(CC(C)C)=N[S+](=O)([O-])c2cc(NC(=O)c3ccc(SC)cc3)ccc21 [NCGC00531764-01]	7.96e-08 M	2.12e-06 M	8.93e-06 M	1e-05 M	–	–	–	–
CCCN1C(CC(C)C)=N[S+](=O)([O-])c2cc(NC(=O)c3ccccc3C(F)(F)F)ccc21 [NCGC00531765-01]	7.67e-06 M	7.52e-06 M	1.17e-05 M	1.17e-05 M	–	–	–	–
CCCN1C(CC(C)C)=N[S+](=O)([O-])c2cc(NC(=O)c3ccc(F)c(Br)c3)ccc21 [NCGC00531767-01]	2.08e-06 M	1.06e-06 M	8.61e-06 M	6.32e-06 M	–	–	–	–
CCCN1C(CC(C)C)=N[S+](=O)([O-])c2cc(NC(=O)c3ccc(F)c(Cl)c3)ccc21 [NCGC00531769-01]	2.82e-06 M	3.7e-06 M	7.38e-06 M	3.99e-07 M	–	–	–	–
CCCN1C(CC(C)C)=N[S+](=O)([O-])c2cc(NC(=O)c3cccc(Cl)c3)ccc21 [NCGC00531770-01]	4.74e-06 M	3.56e-06 M	2.82e-06 M	4.48e-06 M	–	–	–	–
CCCN1C(CC(C)C)=N[S+](=O)([O-])c2cc(NC(=O)c3cccc(OC)c3)ccc21 [NCGC00531773-01]	3.56e-06 M	7.67e-06 M	1e-05 M	1.06e-05 M	–	–	–	–
CCCN1C(CC(C)C)=N[S+](=O)([O-])c2cc(NC(=O)c3ccc(Cl)cc3)ccc21 [NCGC00531775-01]	2e-07 M	6.32e-07 M	2.24e-07 M	3.17e-06 M	–	–	–	–
CCCN1C(CC(C)C)=N[S+](=O)([O-])c2cc(NC(=O)c3cccc(C(F)(F)F)c3)ccc21 [NCGC00531777-01]	7.1e-07 M	1.36e-06 M	7.52e-06 M	2.24e-09 M	–	–	–	–
CCCN1C(CC(C)C)=N[S+](=O)([O-])c2cc(NC(=O)c3ccc4c(c3)OCCO4)ccc21 [NCGC00531778-01]	2.24e-07 M	5.22e-06 M	1.31e-05 M	1.31e-05 M	–	–	–	–
CCCN1C(CC(C)C)=N[S+](=O)([O-])c2cc(NC(=O)c3c(Cl)cccc3Cl)ccc21 [NCGC00531779-01]	1.85e-06 M	1.19e-05 M	1.59e-05 M	1.53e-05 M	–	–	–	–
CCCN1C(CC(C)C)=N[S+](=O)([O-])c2cc(NCc3ccc(F)cc3)ccc21 [NCGC00531784-01]	4.15e-06 M	1.19e-05 M	1.42e-05 M	1.26e-05 M	–	–	–	–
CCCN1C(CC(C)C)=N[S+](=O)([O-])c2cc(NCc3ccccc3)ccc21 [NCGC00531800-01]	1e-05 M	1.12e-05 M	9.46e-06 M	1.42e-05 M	–	–	–	–
CCCN1C(CC(C)C)=N[S+](=O)([O-])c2cc(N(Cc3cccs3)Cc3cccs3)ccc21 [NCGC00531812-01]	6.32e-06 M	3.56e-06 M	3.99e-06 M	4.66e-06 M	–	–	–	–
CCCN1C(CC(C)C)=N[S+](=O)([O-])c2cc(NCc3cccs3)ccc21 [NCGC00531814-01]	1.59e-05 M	1.78e-05 M	1.93e-05 M	1.59e-05 M	–	–	–	–
CCCN1C(CC(C)C)=N[S+](=O)([O-])c2cc(NC(=O)Cc3cccs3)ccc21 [NCGC00531815-01]	1e-05 M	7.67e-06 M	5.22e-06 M	5.64e-06 M	–	–	–	–
